This is an account of results in patent US10188108B2, “Fused bicyclic heterocycle derivatives as pesticides” (BAYER CROPSCIENCE AKTIENGESELLSCHAFT, priority 2015, dated 2019).

The subject of series [1] is Spodoptera frugiperda. Kind of series: Spodoptera frugiperda - spray test. The format is in vivo. The conditions noted are these: 500 g/ha, after 7 days, caterpillars on maize leaf discs. The procedure: (§1) • Solvent: 78.0 parts by weight of acetone • 1.5 parts by weight of dimethylformamide • Emulsifier: alkylaryl polyglycol ether
(§2) To produce a suitable preparation of active compound, 1 part by weight of active compound is dissolved using the stated parts by weight of solvent and made up with water containing an emulsifier concentration of 1000 ppm until the desired concentration is attained. To produce further test concentrations, the preparation is diluted with emulsifier-containing water.
Leaf discs of maize (Zea mays) are sprayed with an active compound preparation of the desired concentration and, after drying, populated with caterpillars of the armyworm (Spodoptera frugiperda).
After 7 days, the efficacy in % is determined. 100% means that all the caterpillars have been killed; 0% means that no caterpillars have been killed.

A short description of series [2]: log P by HPLC on a reversed-phase column (C 18), EEC Directive 79/831 Annex V.A8. The format is physicochemical. The conditions noted are these: for LOGP_NEUTRAL: pH 7.8, 0.001 molar aqueous ammonium hydrogencarbonate/acetonitrile; for chromatographic logP: reversed-phase HPLC column (C 18). The method, then: The log P values are measured according to EEC Directive 79/831 Annex V.A8 by HPLC (high-performance liquid chromatography) on a reversed-phase column (C 18). Temperature: 55° C.
The LC-MS determination in the acidic range is effected at pH 2.7 using 0.1% aqueous formic acid and acetonitrile (contains 0.1% formic acid) as eluents; linear gradient from 10% acetonitrile to 95% acetonitrile. Called log P (HCOOH) in the table.
LC-MS determination in the neutral range is effected at pH 7.8 with 0.001 molar aqueous ammonium hydrogencarbonate solution and acetonitrile as eluents; linear gradient from 10% acetonitrile to 95% acetonitrile. Called log P (neutral) in the table.
Calibration is carried out using unbranched alkan-2-ones (having 3 to 16 carbon atoms) with known log P values (log P values determined on the basis of the retention times by linear interpolation between two successive alkanones).

The test system of series [3] is Phaedon cochleariae. Put plainly: Phaedon cochleariae - spray test. Format: in vivo. The conditions noted are these: after 7 days, larvae on Chinese cabbage leaf discs. The method, then: as §1, §2
After 7 days, the efficacy in % is determined. 100% means that all the beetle larvae have been killed; 0% means that no beetle larvae have been killed.

Where [4] appears, read: acidic range, pH 2.7, 0.1% aqueous formic acid/acetonitrile, 55° C.
Setting [5] is: acidic range, pH 2.7, 0.1% aqueous formic acid/acetonitrile, 55° C., read-out: LOGP_HCOOH.
Setting [6] is: neutral range, pH 7.8, value in preparation example text, read-out: log P (neutral).
Where [7] appears, read: acidic range, pH 2.7, value in preparation example text, read-out: log P (acidic).

Read-outs that look alike come from different tables or passages of the source.

For the molecule `CCSc1c(-c2nc3cc(C(F)(F)F)ncc3n2C)nc2ccc(Cl)cn12` [Example I-3], in series [1], the efficacy is 100%. This molecule showed an LOGP_HCOOH in series [2] (setting [4]) of 3.59.
The molecule `CCSc1c(-c2nc3cc(C(F)(F)F)ncc3n2C)nc2ccc(C(F)(F)F)cn12` [Example I-5] yielded an efficacy in series [1] of 100%. Further, in series [2] (setting [4]), the LOGP_HCOOH is 3.81. The same molecule returned an LOGP_NEUTRAL in series [2] (neutral range, 55° C.) of 3.75.
For `CC[S+]([O-])c1c(-c2nc3cc(C(F)(F)F)ncc3n2C)nc2ccc(C(F)(F)F)cn12` (stereo not drawn) [Example I-8], the efficacy in series [1] and in series [3] (500 g/ha) was 100% in each case. Also, the LOGP_HCOOH in series [2] (setting [4]) was 3.25.
On to `CCSc1c(-c2nc3cc(C(F)(F)F)ccc3n2C)nc2ccccn12` [Example I-9], for which the efficacy in series [3] (500 g/ha) was found to be 100%. In addition, in series [2] (setting [4]), the LOGP_HCOOH is 3.25. This molecule also came in with an LOGP_NEUTRAL in series [2] (neutral range, 55° C.) of 3.41.
In the case of `CCS(=O)(=O)c1c(-c2nc3cc(C(F)(F)F)ccc3o2)nc2ccccn12` [Example I-12], the efficacy in series [1] and in series [3] (500 g/ha) was 83% each time. The molecule also showed an LOGP_HCOOH in series [2] (setting [4]) of 2.92. In series [2] (neutral range, 55° C.), this molecule returned an LOGP_NEUTRAL of 2.94.
For `CCSc1c(-c2nc3cc(C(F)(F)F)ncc3n2C)nc2c(C(F)(F)F)cccn12` [Example I-13], the efficacy in series [1] and in series [3] (500 g/ha) was 100% each time. The LOGP_HCOOH in series [2] (setting [4]) is given as 1.40. Moreover, the LOGP_NEUTRAL in series [2] (neutral range, 55° C.) amounted to 3.71.
Molecule `CCSc1c(-c2nc3cc(C(F)(F)F)ncc3n2C)nc2c(Cl)cccn12` [Example I-14] registered an LOGP_HCOOH in series [2] (setting [4]) of 3.33. The molecule further yielded an LOGP_NEUTRAL in series [2] (neutral range, 55° C.) of 3.34.
For `CCSc1cccn2c(SCC)c(-c3nc4cc(C(F)(F)F)ncc4n3C)nc12` [Example I-15], in that order: 3.99 and 3.93.
Take `CCSc1c(-c2nc3cc(C(F)(F)F)ncc3n2C)nc2cc(C(F)(F)F)ccn12` [Example I-16]: the efficacy in series [1] and in series [3] (500 g/ha) was 100% throughout. This molecule also came in with an LOGP_HCOOH in series [2] (setting [4]) of 3.80. The LOGP_NEUTRAL in series [2] (neutral range, 55° C.) is recorded as 3.80.
Regarding `CCSc1c(-c2nc3cc(C(F)(F)F)ncc3n2C)nc2cccc(C(F)(F)F)n12` [Example I-20], the LOGP_HCOOH in series [2] (setting [4]) came to 3.50.
Take `CCS(=O)(=O)c1c(-c2nc3cc(C(F)(F)F)ncc3n2C)nc2c(C(F)(F)F)cccn12` [Example I-24]: the efficacy in series [1] and in series [3] (500 g/ha) was 100% each time. Further, the LOGP_HCOOH in series [2] (setting [4]) came to 2.92. In series [2] (neutral range, 55° C.), this molecule registered an LOGP_NEUTRAL of 2.90.
`CC[S+]([O-])c1c(-c2nc3cc(C(F)(F)F)ncc3n2C)nc2c(C(F)(F)F)cccn12` (stereo not drawn) [Example I-25]: the efficacy in series [1] and in series [3] (500 g/ha) was 100% each time. In series [2] (setting [4]), this molecule came in with an LOGP_HCOOH of 3.29. The LOGP_NEUTRAL in series [2] (neutral range, 55° C.) was 3.21.
In turn, `CCSc1c(-c2nc3cc(C(F)(F)F)ccc3n2C)nc2cccc(C)n12` [Example I-26] had an efficacy in series [3] (500 g/ha) of 83%. This molecule also returned an LOGP_HCOOH in series [2] (setting [4]) of 3.35.
Regarding `CCSc1c(-c2nc3cc(C(F)(F)F)ccc3n2C)nc2cccc(C(F)(F)F)n12` [Example I-27], the LOGP_HCOOH in series [2] (setting [4]) was found to be 4.09.
For `CCSc1c(-c2nc3cc(C(F)(F)F)ccc3n2C)nc2ccc(C(F)(F)F)cn12` [Example I-28], in series [1], the efficacy is given as 100%. The molecule further registered an LOGP_HCOOH in series [2] (setting [4]) of 4.47.
With `CCSc1c(-c2nc3cc(C(F)(F)F)ccc3n2C)nc2ccc(Cl)cn12` [Example I-29], the efficacy in series [1] and in series [3] (500 g/ha) was 100% throughout. In series [2] (setting [4]), this molecule came in with an LOGP_HCOOH of 4.12.
Take `CCSc1cccc2nc(-c3nc4cc(C(F)(F)F)ccc4n3C)c(SCC)n12` [Example I-31]: the LOGP_HCOOH in series [2] (setting [4]) is 3.95.
On the same count and under the same terms, the figure for `CCSc1ccn2c(SCC)c(-c3nc4cc(C(F)(F)F)ccc4n3C)nc2c1` [Example I-32] is 4.23.
On the same count and under the same terms, the same measure for `CCSc1c(-c2nc3cc(C(F)(F)F)ccc3n2C)nc2cc(C)ccn12` [Example I-37]: 3.41; for `CCSc1c(-c2nc3cc(C(F)(F)F)ccc3n2C)nc2ccc(C)cn12` [Example I-38]: 3.57.
In series [3] (500 g/ha), `CCS(=O)(=O)c1c(-c2nc3cc4c(cc3[nH]2)OC(F)(F)O4)nc2ccccn12` [Example I-40, 6-[3-(Ethylsulphonyl)imidazo[1,2-a]pyridin-2-yl]-2,2-difluoro-5H-[1,3]dioxolo[4,5-f]benzimidazole] gave an efficacy of 100%. This molecule also showed an LOGP_NEUTRAL in series [2] (neutral range, 55° C.) of 2.59. The chromatographic logP is 2.51 in series [2] (setting [5]) and 2.59 in series [2] (setting [6]).
Regarding `CCS(=O)(=O)c1c(-c2nc3cc(C(F)(F)F)ccc3s2)nc2ccccn12` [Example I-43], the efficacy in series [3] (100 g/ha) was determined as 83%. The molecule further had an LOGP_HCOOH in series [2] (setting [4]) of 3.60.
In the case of `CCSc1c(-c2nc3cc(C(F)(F)F)ncc3n2C)nc2ccc(C)cn12` [Example I-45], the LOGP_HCOOH in series [2] (setting [4]) was found to be 3.20. Further, in series [2] (neutral range, 55° C.), the LOGP_NEUTRAL turned out to be 3.22.
As for `CCS(=O)(=O)c1c(-c2nc3cc(C(F)(F)F)cnc3s2)nc2ccccn12` [Example I-51], the LOGP_HCOOH in series [2] (setting [4]) was determined as 3.21. The molecule also gave an LOGP_NEUTRAL in series [2] (neutral range, 55° C.) of 3.20.
For `CC[S+]([O-])c1c(-c2nc3cc(C(F)(F)F)ncc3n2C)nc2ccc(OC)cn12` (stereo not drawn) [Example I-55], in that order: 2.54 and 2.48.
In series [2] (setting [4]), `CCS(=O)(=O)c1c(-c2nc3cc(C(F)(F)F)cnc3o2)nc2ccc(C)cn12` [Example I-56] showed an LOGP_HCOOH of 2.89.
Molecule `CCSc1c(-c2nc3cc(C(F)(F)F)cnc3o2)nc2cccc(C(F)(F)F)n12` [Example I-57] displayed an LOGP_HCOOH in series [2] (setting [4]) of 4.11.
Take `CCSc1c(-c2nc3cc(C(F)(F)F)cnc3o2)nc2ccc(C(F)(F)F)cn12` [Example I-58]: the LOGP_HCOOH in series [2] (setting [4]) is given as 4.14.
In the case of `CCSc1c(-c2nc3cc(C(F)(F)F)cnc3o2)nc2ccccn12` [Example I-60, 2-[3-(Ethylsulphanyl)imidazo[1,2-a]pyridin-2-yl]-6-(trifluoromethyl) [1,3]oxazolo[5,4-b]pyridine], the LOGP_NEUTRAL in series [2] (neutral range, 55° C.) turned out to be 3.15. Moreover, the chromatographic logP in series [2] (setting [5]) was determined as 3.2; in series [2] (setting [6]) it was 3.15.
`Cn1c(-c2nc3ccccn3c2Cl)nc2cc(C(F)(F)F)ncc21` [Example V-1, 2-(3-Chloroimidazo[1,2-a]pyridin-2-yl)-3-methyl-6-(trifluoromethyl)imidazo[4,5-c]pyridine]: the chromatographic logP in series [2] (setting [6]) was determined as 2.38.
Turning to `O=C(O)c1nc2cc(C(F)(F)F)ccn2c1Cl` [III-1, 3-Chloro-7-(trifluoromethyl)imidazo[1,2-a]pyridine-2-carboxylic acid], the chromatographic logP in series [2] (setting [7]) is 1.5.
With `CCOC(=O)c1nc2ccccn2c1SCC` [XXII-1, Ethyl 3-(ethylsulphanyl)imidazo[1,2-a]pyridine-2-carboxylate], the chromatographic logP in series [2] (setting [6]) was found to be 2.05.
Consider `CCS(=O)(=O)c1c(C(=O)O)nc2ccccn12` [XXIII-1, 3-(Ethylsulphonyl)imidazo[1,2-a]pyridine-2-carboxylic acid], for which, in series [2] (setting [7]), the chromatographic logP worked out at 0.54.
`CCOC(=O)c1nc2ccccn2c1S(=O)(=O)CC` [XXIV-1, Ethyl 3-(ethylsulphonyl)imidazo[1,2-a]pyridine-2-carboxylate]: in series [2] (setting [6]), the chromatographic logP was determined as 1.52.
The same measure, in the same setting: the figure for `CCSc1c(C(=O)Nc2cc(C(F)(F)F)cnc2Cl)nc2ccccn12` [XXVI-1, N-[2-Chloro-5-(trifluoromethyl)pyridin-3-yl]-3-(ethylsulphanyl)imidazo[1,2-a]pyridine-2-carboxamide] is 4.39.
